In the kinase profiling compilation of Christmann-Franck et al. (2016):

Key:
Test in all cases: KINOMEscan competition binding
Conditions in all cases: compound 10.0 µM
[1] = molecular target: STK38 (human) (UniProt Q15208)
[2] = molecular target: NTRK3 (human) (UniProt Q16288)
[3] = molecular target: CDK2 (human) (UniProt P24941)
[4] = molecular target: AAK1 (human) (UniProt Q2M2I8)
[5] = molecular target: CAMK1D (human) (UniProt Q8IU85)
[6] = molecular target: EPHA2 (human) (UniProt P29317)
[7] = molecular target: ACVR2B (human) (UniProt Q13705)
[8] = molecular target: RPS6KA3 KD1 (human) (UniProt P51812)
Chain of RPS6KA3 KD1 (human) (P51812 whole entry, looked up): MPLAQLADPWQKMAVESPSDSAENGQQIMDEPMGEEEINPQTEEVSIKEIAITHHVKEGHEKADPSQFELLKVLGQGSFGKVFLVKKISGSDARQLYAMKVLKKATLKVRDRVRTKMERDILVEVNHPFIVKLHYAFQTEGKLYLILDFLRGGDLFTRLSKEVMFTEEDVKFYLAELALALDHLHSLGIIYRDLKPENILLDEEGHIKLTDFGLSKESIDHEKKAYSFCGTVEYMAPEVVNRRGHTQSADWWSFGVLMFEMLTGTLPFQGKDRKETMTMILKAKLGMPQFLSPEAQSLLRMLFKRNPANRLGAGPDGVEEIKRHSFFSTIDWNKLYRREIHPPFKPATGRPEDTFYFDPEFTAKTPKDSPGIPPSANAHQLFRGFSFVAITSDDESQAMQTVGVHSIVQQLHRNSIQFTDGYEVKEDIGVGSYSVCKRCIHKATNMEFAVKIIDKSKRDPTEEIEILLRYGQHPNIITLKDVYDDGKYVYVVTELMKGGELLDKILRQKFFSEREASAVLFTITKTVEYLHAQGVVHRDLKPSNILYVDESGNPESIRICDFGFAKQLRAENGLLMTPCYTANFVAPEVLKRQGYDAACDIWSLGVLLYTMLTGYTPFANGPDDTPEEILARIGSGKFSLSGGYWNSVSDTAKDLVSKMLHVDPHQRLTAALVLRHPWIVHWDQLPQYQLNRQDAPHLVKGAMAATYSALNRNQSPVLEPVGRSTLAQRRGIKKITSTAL

[9] = molecular target: NIM1 (human) (UniProt Q8IY84)
[10] = molecular target: BLK (human) (UniProt P51451)
[11] = molecular target: NEK11 (human) (UniProt Q8NG66)
Chain of NEK11 (human) (Q8NG66 whole entry, looked up): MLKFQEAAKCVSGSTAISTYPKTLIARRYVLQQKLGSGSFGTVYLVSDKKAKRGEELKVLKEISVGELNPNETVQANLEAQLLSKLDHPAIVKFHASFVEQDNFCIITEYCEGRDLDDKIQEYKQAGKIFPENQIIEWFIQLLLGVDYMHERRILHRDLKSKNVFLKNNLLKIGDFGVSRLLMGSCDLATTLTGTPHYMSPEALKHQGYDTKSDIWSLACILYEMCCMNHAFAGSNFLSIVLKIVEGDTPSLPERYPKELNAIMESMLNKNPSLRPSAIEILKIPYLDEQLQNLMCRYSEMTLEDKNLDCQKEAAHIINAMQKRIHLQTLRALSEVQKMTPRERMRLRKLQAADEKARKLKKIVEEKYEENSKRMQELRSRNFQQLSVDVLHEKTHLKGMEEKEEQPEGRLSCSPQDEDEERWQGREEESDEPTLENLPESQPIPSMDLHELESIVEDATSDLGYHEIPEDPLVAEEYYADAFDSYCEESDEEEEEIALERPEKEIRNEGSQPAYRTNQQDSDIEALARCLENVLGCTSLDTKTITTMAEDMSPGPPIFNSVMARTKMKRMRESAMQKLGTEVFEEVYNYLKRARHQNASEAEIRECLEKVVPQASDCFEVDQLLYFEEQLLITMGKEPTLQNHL

[12] = molecular target: TGFBR2 (human) (UniProt P37173)
Chain of TGFBR2 (human) (P37173 whole entry, looked up): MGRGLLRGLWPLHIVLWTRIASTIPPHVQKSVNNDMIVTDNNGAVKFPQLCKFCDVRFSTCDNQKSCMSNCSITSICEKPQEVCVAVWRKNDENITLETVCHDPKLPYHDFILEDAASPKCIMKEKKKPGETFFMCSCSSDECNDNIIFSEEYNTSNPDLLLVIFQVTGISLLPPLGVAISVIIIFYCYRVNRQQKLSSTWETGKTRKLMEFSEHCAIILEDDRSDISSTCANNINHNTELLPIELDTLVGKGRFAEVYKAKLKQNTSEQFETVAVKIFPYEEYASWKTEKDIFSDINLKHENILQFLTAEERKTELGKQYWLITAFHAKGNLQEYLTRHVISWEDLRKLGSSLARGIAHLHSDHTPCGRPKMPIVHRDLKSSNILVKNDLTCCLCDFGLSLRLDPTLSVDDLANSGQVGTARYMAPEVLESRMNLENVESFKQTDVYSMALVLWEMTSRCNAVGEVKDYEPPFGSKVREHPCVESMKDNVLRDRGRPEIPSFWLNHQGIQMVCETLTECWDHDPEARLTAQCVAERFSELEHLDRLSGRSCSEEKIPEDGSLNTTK

[13] = molecular target: MAPK11 (human) (UniProt Q15759)
[14] = molecular target: STK32B (human) (UniProt Q9NY57)
[15] = molecular target: CDC2L2 (human) (UniProt Q9UQ88)
[16] = molecular target: MAP2K2 (human) (UniProt P36507)
[17] = molecular target: SRPK3 (human) (UniProt Q9UPE1)
Chain of SRPK3 (human) (Q9UPE1 whole entry, looked up): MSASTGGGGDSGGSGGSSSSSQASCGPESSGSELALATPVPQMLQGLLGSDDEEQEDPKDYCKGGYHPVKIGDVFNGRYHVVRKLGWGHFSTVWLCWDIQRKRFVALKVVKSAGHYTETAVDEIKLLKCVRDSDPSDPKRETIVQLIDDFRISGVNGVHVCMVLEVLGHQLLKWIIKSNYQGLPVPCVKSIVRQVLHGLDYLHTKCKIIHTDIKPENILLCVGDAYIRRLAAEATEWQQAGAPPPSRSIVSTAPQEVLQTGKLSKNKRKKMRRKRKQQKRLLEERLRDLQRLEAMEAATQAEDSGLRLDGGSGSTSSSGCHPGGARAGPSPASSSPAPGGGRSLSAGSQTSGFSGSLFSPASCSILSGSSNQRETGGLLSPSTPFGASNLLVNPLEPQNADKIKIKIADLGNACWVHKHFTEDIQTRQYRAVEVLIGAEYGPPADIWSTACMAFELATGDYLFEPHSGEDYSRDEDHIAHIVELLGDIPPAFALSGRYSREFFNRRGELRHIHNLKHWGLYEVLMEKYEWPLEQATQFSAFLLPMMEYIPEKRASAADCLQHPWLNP

[18] = molecular target: ALK (human) (UniProt Q9UM73)
[19] = molecular target: EPHB2 (human) (UniProt P29323)
[20] = molecular target: CSNK1G2 (human) (UniProt P78368)
[21] = molecular target: EPHB6 (human) (UniProt O15197)
[22] = molecular target: RPS6KB1 (human) (UniProt P23443)
Chain of RPS6KB1 (human) (P23443 whole entry, looked up): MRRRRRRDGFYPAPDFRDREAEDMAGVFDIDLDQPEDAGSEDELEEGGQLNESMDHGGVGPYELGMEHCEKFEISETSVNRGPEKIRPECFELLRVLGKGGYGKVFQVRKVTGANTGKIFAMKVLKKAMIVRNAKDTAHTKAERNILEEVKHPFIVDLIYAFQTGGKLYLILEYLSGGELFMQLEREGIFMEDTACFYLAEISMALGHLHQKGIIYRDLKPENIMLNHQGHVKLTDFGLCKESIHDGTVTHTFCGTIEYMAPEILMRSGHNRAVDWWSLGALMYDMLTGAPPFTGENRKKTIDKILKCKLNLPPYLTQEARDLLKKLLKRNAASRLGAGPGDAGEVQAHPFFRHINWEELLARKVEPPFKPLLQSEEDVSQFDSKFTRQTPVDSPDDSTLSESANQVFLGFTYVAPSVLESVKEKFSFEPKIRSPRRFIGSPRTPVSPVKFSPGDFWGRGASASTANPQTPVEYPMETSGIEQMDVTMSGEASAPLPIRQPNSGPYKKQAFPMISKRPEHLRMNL

[23] = molecular target: STK33 (human) (UniProt Q9BYT3)
[24] = molecular target: MYLK3 (human) (UniProt Q32MK0)
[25] = molecular target: TSSK1B (human) (UniProt Q9BXA7)
[26] = molecular target: NUAK1 (human) (UniProt O60285)
[27] = molecular target: PAK6 (human) (UniProt Q9NQU5)
[28] = molecular target: DYRK1B (human) (UniProt Q9Y463)
[29] = molecular target: CHEK2 (human) (UniProt O96017)
[30] = molecular target: BMPR2 (human) (UniProt Q13873)
[31] = molecular target: TEC (human) (UniProt P42680)
[32] = molecular target: CDK4 CCND1 (human) (UniProt P11802+P24385)
[33] = molecular target: MERTK (human) (UniProt Q12866)
Chain of MERTK (human) (Q12866 whole entry, looked up): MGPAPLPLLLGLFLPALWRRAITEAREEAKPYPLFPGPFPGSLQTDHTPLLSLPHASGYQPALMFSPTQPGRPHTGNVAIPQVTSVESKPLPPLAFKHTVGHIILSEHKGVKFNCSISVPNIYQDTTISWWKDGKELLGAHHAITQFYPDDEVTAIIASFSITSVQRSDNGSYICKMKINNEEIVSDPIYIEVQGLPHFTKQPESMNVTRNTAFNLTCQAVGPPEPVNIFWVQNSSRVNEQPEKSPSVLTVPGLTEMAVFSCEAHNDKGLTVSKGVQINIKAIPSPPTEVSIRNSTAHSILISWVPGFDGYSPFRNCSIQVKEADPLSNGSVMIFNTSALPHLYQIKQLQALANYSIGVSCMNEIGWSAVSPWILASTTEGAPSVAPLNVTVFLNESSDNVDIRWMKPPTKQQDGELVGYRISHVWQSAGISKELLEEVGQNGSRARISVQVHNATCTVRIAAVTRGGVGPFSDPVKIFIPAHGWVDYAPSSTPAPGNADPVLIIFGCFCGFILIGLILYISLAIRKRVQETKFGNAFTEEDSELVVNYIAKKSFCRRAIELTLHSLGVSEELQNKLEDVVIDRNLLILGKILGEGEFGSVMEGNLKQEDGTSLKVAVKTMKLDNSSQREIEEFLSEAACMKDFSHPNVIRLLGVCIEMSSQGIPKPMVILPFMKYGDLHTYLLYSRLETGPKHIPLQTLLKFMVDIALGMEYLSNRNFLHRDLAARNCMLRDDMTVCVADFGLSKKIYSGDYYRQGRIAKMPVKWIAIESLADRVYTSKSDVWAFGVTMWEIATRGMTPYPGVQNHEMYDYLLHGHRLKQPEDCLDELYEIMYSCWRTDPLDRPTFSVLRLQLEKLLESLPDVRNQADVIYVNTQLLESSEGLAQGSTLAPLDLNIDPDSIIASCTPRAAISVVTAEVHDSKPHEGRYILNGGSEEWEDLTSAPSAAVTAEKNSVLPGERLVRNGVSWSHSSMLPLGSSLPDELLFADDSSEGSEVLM

[34] = molecular target: PRKD2 (human) (UniProt Q9BZL6)
[35] = molecular target: DDR1 (human) (UniProt Q08345)
[36] = molecular target: CAMK2D (human) (UniProt Q13557)
[37] = molecular target: EGFR (human) (UniProt P00533)
[38] = molecular target: PIP4K2B (human) (UniProt P78356)
[39] = molecular target: ROCK2 (human) (UniProt O75116)
[40] = molecular target: EPHA1 (human) (UniProt P21709)

Chain of EPHA2 (human) (P29317 whole entry, looked up): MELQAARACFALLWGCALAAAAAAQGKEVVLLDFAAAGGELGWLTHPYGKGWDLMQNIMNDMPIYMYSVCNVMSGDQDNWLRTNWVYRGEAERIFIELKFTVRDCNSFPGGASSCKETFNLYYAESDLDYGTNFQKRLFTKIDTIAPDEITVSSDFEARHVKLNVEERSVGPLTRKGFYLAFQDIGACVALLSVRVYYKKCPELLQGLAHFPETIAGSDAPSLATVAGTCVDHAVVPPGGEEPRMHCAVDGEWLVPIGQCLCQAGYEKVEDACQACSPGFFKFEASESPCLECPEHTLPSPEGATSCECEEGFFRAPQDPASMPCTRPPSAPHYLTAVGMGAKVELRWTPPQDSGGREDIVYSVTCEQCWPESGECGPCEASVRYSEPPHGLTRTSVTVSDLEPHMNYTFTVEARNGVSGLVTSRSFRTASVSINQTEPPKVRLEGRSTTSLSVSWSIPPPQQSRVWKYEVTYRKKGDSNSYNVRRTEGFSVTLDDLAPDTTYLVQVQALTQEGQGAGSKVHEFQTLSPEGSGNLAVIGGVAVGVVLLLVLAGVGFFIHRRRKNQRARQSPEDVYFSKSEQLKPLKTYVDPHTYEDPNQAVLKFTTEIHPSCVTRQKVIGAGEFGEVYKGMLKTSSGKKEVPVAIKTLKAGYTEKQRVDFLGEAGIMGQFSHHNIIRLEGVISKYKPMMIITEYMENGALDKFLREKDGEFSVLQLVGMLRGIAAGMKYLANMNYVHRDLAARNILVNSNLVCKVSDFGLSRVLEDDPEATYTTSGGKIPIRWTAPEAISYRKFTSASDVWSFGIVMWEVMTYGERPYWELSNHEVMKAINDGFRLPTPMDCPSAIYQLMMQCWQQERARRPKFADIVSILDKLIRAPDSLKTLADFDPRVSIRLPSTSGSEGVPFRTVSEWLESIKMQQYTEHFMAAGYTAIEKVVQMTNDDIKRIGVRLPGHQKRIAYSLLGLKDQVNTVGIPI

Structure (SMILES)	kinase still bound, per cent of control [1]	kinase still bound, per cent of control [2]	kinase still bound, per cent of control [3]	kinase still bound, per cent of control [4]	kinase still bound, per cent of control [5]	kinase still bound, per cent of control [6]	kinase still bound, per cent of control [7]	kinase still bound, per cent of control [8]	kinase still bound, per cent of control [9]	kinase still bound, per cent of control [10]	kinase still bound, per cent of control [11]	kinase still bound, per cent of control [12]	kinase still bound, per cent of control [13]	kinase still bound, per cent of control [14]	kinase still bound, per cent of control [15]	kinase still bound, per cent of control [16]	kinase still bound, per cent of control [17]	kinase still bound, per cent of control [18]	kinase still bound, per cent of control [19]	kinase still bound, per cent of control [20]	further results
COc1ccc(N(C(=O)Oc2c(C)cccc2C)c2ccnc(Nc3ccc(N4CCN(C)CC4)cc3)n2)c(OC)c1	100%	100%	65%	13%	100%	0%	1.8%	37%	100%	0.05%	100%	16%	11%	1.1%	42%	46%	11%	0.35%	0%	33%	kinase still bound, per cent of control [21]: 1.2%; kinase still bound, per cent of control [22]: 72%; kinase still bound, per cent of control [23]: 28%; kinase still bound, per cent of control [24]: 100%; kinase still bound, per cent of control [25]: 87%; kinase still bound, per cent of control [26]: 30%; kinase still bound, per cent of control [27]: 71%; kinase still bound, per cent of control [28]: 68%; kinase still bound, per cent of control [29]: 78%; kinase still bound, per cent of control [30]: 0.2%; kinase still bound, per cent of control [31]: 3.7%; kinase still bound, per cent of control [32]: 5.4%; kinase still bound, per cent of control [33]: 20%; kinase still bound, per cent of control [34]: 6.4%; kinase still bound, per cent of control [35]: 0.25%; kinase still bound, per cent of control [36]: 100%; kinase still bound, per cent of control [37]: 0.4%; kinase still bound, per cent of control [38]: 5.4%; kinase still bound, per cent of control [39]: 88%; kinase still bound, per cent of control [40]: 0%
O=C1NC(=O)/C(=C/c2ccc3nccc(-c4ccncc4)c3c2)S1	61%	68%	76%	1%	57%	95%	20%	41%	71%	77%	72%	73%	86%	100%	85%	4.4%	31%	25%	86%	0.05%	kinase still bound, per cent of control [21]: 39%; kinase still bound, per cent of control [22]: 53%; kinase still bound, per cent of control [23]: 0.55%; kinase still bound, per cent of control [24]: 6.2%; kinase still bound, per cent of control [25]: 2.2%; kinase still bound, per cent of control [26]: 100%; kinase still bound, per cent of control [27]: 83%; kinase still bound, per cent of control [28]: 1.2%; kinase still bound, per cent of control [29]: 57%; kinase still bound, per cent of control [30]: 100%; kinase still bound, per cent of control [31]: 73%; kinase still bound, per cent of control [32]: 92%; kinase still bound, per cent of control [33]: 14%; kinase still bound, per cent of control [34]: 90%; kinase still bound, per cent of control [35]: 62%; kinase still bound, per cent of control [36]: 10%; kinase still bound, per cent of control [37]: 58%; kinase still bound, per cent of control [38]: 4%; kinase still bound, per cent of control [39]: 53%; kinase still bound, per cent of control [40]: 85%
